Strand notation (5' to 3'): a small letter for the sugar, then the base; units joined by * are phosphorothioate-linked, units joined directly phosphodiester-linked; [ ] holds rarer units or linkages, { } end groups; capitals alone tell only the bases. d = 2'-deoxy (DNA)
Experiments:
[1] = tested on: ICAM-1; assay: ELISA of ICAM-1 expression in A431 cells; assay type: cell-based; conditions: human epidermal carcinoma A431 cells
Protocol: (§1) Expression of ICAM-1, VCAM-1 and ELAM-1 on the surface of cells can be quantitated using specific monoclonal antibodies in an ELISA. Cells are grown to confluence in 96 well microtiter plates. The cells are stimulated with either interleukin-1 or tumor necrosis factor for 4 to 8 hours to quantitate ELAM-1 and 8 to 24 hours to quantitate ICAM-1 and VCAM-1. Following the appropriate incubation time with the cytokine, the cells are gently washed three times with a buffered isotonic solution containing calcium and magnesium such as Dulbecco's phosphate buffered saline (D-PBS). The cells are then directly fixed on the microtiter plate with 1 to 2% paraformaldehyde diluted in D-PBS for 20 minutes at 25° C. The cells are washed again with D-PBS three times. Nonspecific binding sites on the microtiter plate are blocked with 2% bovine serum albumin in D-PBS for 1 hour at 37° C. Cells are incubated with the appropriate monoclonal antibody diluted in blocking solution for 1 hour at 37° C. Unbound antibody is removed by washing the cells three times with D-PBS. Antibody bound to the cells is detected by incubation with a 1:1000 dilution of biotinylated goat anti-mouse IgG (Bethesda Research Laboratories, Gaithersburg, Md.) in blocking solution for 1 hour at 37° C. Cells are washed three times with D-PBS and then incubated with a 1:1000 dilution of streptavidin conjugated to β-galactosidase (Bethesda Research Laboratories) for 1 hour at 37° C. The cells are washed three times with D-PBS for 5 minutes each. The amount of β-galactosidase bound to the specific monoclonal antibody is determined by developing the plate in a solution of 3.3 mM chlorophenolred-β-D-galactopyranoside, 50 mM sodium phosphate, 1.5 mM MgCl2; pH=7.2 for 2 to 15 minutes at 37° C. The concentration of the product is determined by measuring the absorbance at 575 nm in an ELISA microtiter plate reader. […]
(§2) Cells grown in 96-well plates were washed three times with Opti-MEM (GIBCO, Grand Island, N.Y.) prewarmed to 37° C. […] ICAM-1 expression was determined as described in Example 1. […]

[2] = tested on: ICAM-1; assay: ELISA of ICAM-1 expression in primary human keratinocytes; assay type: cell-based
Protocol: as §1, §2

[3] = tested on: ICAM-1; assay: Immunoprecipitation of 35S-labelled ICAM-1 from A549 cells; assay type: cell-based, human; conditions: 1 μM oligonucleotide
Protocol: The specificity of the antisense oligonucleotides ISIS 1570 and ISIS 1939 for ICAM-1 was evaluated by immunoprecipitation of ^35S-labelled proteins. A549 cells were grown to confluence in 25 cm^2 tissue culture flasks and treated with antisense oligonucleotides as described in Example 4. The cells were stimulated with interleukin-1β for 14 hours, washed with methionine-free DMEM plus 10% dialyzed fetal calf serum, and incubated for 1 hour in methionine-free medium containing 10% dialyzed fetal calf serum, 1 μM oligonucleotide and interleukin-1β as indicated. ^35S-Methionine/cysteine mixture (Tran^35S-label, purchased from ICN, Costa Mesa, Calif.) was added to the cells to an activity of 100 μCi/ml and the cells were incubated an additional 2 hours. Cellular proteins were extracted by incubation with 50 mM Tris-HCl pH 8.0, 150 mM NaCl, 1.0% NP-40, 0.5% deoxycholate and 2 mM EDTA (0.5 ml per well) at 4° C. for 30 minutes. The extracts were clarified by centrifugation at 18,000×g for 20 minutes. The supernatants were preadsorbed with 200 μl protein G-Sepharose beads (Bethesda Research Labs, Bethesda Md.) for 2 hours at 4° C., divided equally and incubated with either 5 μg ICAM-1 monoclonal antibody (purchased from AMAC Inc., Westbrook Me.) or HLA-A, B antibody (W6/32, produced by murine hybridoma cells obtained from the American Type Culture Collection, Bethesda, Md.) for 15 hours at 4° C. Immune complexes were trapped by incubation with 200 μl of a 50% suspension of protein G-Sepharose (v/v) for 2 hours at 4° C., washed 5 times with lysis buffer and resolved on an SDS-polyacrylamide gel. Proteins were detected by autoradiography.

[4] = tested on: ICAM-1; assay: ELISA of ICAM-1 cell surface expression in C8161 human melanoma cells; assay type: cell-based; conditions: 15 μg/ml Lipofectin, 5 ng/ml TNF-α 16 hours
Protocol: ICAM-1 expression on the cell surface was measured by ELISA. Cells were treated with increasing concentrations of antisense oligonucleotides in the presence of 15 μg/ml Lipofectin for 4 hours at 37° C. ICAM-1 expression was induced by incubation with 5 ng/ml TNF-α for 16 hours. Cells were washed 3× in DPBS and fixed for 20 minutes in 2% formaldehyde. Cells were washed in DPBS, blocked with 2% BSA for 1 hour at 37° C. and incubated with ICAM-1 monoclonal antibody 84H10 (AMAC, Inc., Westbrook, Me.). Detection of bound antibody was determined by incubation with a biotinylated goat anti-mouse IgG followed by incubation with […] streptavidin and developed with chlorophenol red-β-D-galactopyranoside and quantified by absorbance at 575 nm. ICAM-1 mRNA levels were measured by Northern blot analysis.
The data were expressed as percentage of control activity, calculated as follows: (ICAM-1 expression for oligonucleotide-treated, cytokine-induced cells)−(basal ICAM-1 expression)/(ICAM-1 cytokine-induced expression)−(basal ICAM-1 expression)×100.

| Substance | inhibition of ICAM-1 expression [1] | inhibition of ICAM-1 expression [2] | decrease of ICAM-1 synthesis ([3]; 5 units/ml interleukin-1β) | cell surface expression of ICAM-1 [4] | ICAM-1 synthesis ([3]; interleukin-1β) |
| --- | --- | --- | --- | --- | --- |
| ISIS 1570: phosphorothioate, human ICAM-1 AUG Codon (64-81), SEQ ID NO 1, TGGGAGCCATAGCGAGGC (antisense dT*dG*dG*dG*dA*dG*dC*dC*dA*dT*dA*dG*dC*dG*dA*dG*dG*dC) | inhibit ICAM-1 expression | inhibit ICAM-1 expression | approximately 50% | decreased cell surface expression of ICAM-1 |  |
| ISIS 1939: P=S, human ICAM-1 3′-Untranslated (1952-1971), SEQ ID NO 15, CCCCCACCACTTCCCCTCTC (antisense dC*dC*dC*dC*dC*dA*dC*dC*dA*dC*dT*dT*dC*dC*dC*dC*dT*dC*dT*dC) | inhibit ICAM-1 expression | inhibit ICAM-1 expression |  | decreased cell surface expression of ICAM-1 | near background |
